Measurements taken from patent US8022091B2, “Triazole derivative” (Taisho Pharmaceutical Co., Ltd., priority 2006, dated 2011).

Target: T1, human Edg-1 (S1P1) (Homo sapiens, UniProt P21453)
T1 construct: expressed in transfected cells; host or cells: HEK-293
Experiment: S1P1 binding assay: inhibition of [33P]-S1P binding to membrane fraction of HEK-293 cells transferred with the human Edg-1 (S1P1) gene
Conditions: test compound 10 μM; inhibition of [33P]-S1P binding, membrane fraction
In short: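 With 0.1 nM [33P]-S1P and compound (10^−5M single point, or a concentration range for IC50) in 0.1% DMSO, membrane fractions from human Edg-1-expressing HEK-293 cells were treated for one hour at 30° C in 20 mM Tris-HCl pH 7.4 with NaF, deoxypyridoxine and BSA. Bound label was measured after filtration, with untransfected-cell background subtracted.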

T1 sequence (P21453 whole entry): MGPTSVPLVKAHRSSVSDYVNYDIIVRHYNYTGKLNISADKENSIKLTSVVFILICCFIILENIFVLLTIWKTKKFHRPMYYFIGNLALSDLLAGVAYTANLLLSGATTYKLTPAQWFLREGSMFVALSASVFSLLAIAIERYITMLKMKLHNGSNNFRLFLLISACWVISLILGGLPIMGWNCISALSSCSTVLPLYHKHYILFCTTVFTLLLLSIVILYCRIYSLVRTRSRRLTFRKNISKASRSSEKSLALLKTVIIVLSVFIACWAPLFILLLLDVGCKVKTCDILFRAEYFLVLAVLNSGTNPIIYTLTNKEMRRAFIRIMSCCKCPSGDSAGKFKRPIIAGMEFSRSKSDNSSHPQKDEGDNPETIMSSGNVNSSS

SMILES | inhibition at 10 µM [%]
CCn1c(Oc2ccc3cc[nH]c3c2)nnc1[C@@H](C)NS(=O)(=O)c1cc(Cl)c(F)cc1F [Compound 417] | 90.8
CCn1c(Oc2ccc3cc[nH]c3c2)nnc1[C@@H](C)NS(=O)(=O)c1c(F)c(Br)cc(F)c1Br [Compound 420] | 61
CCn1c(Oc2ccc3cc[nH]c3c2)nnc1[C@@H](C)NS(=O)(=O)c1cc(C(F)(F)F)ccc1Cl [Compound 422] | 83.1
CCn1c(Oc2ccc3cc[nH]c3c2)nnc1[C@@H](C)NS(=O)(=O)c1cccc(F)c1 [Compound 423] | 87.8
CCn1c(Oc2ccc3cc[nH]c3c2)nnc1[C@@H](C)NS(=O)(=O)c1cc(Cl)ccc1OC [Compound 425] | 90.1
CCn1c(Oc2ccc3cc[nH]c3c2)nnc1[C@@H](C)NS(=O)(=O)c1c(C)cc(Cl)cc1Cl [Compound 426] | 92.3
CCn1c(Oc2ccc3cc[nH]c3c2)nnc1[C@@H](C)NS(=O)(=O)c1cc(F)c(F)cc1F [Compound 427] | 86.5
CCn1c(Oc2ccc3cc[nH]c3c2)nnc1[C@@H](C)NS(=O)(=O)c1cc(Br)ccc1Br [Compound 428] | 81.4
CCn1c(Oc2ccc3cc[nH]c3c2)nnc1[C@@H](C)NS(=O)(=O)c1ccc(-c2ccno2)s1 [Compound 429] | 71.1
CCn1c(Oc2ccc3cc[nH]c3c2)nnc1[C@@H](C)NS(=O)(=O)Cc1cccc(Cl)c1 [Compound 430] | 50
CCn1c(Oc2ccc3cc[nH]c3c2)nnc1[C@@H](C)NS(=O)(=O)c1ccc(Br)cc1Br [Compound 431] | 80.5
CCn1c(Oc2ccc3cc[nH]c3c2)nnc1[C@@H](C)NS(=O)(=O)c1ccc(F)c(C#N)c1 [Compound 432] | 84.2
CCn1c(Oc2ccc3cc[nH]c3c2)nnc1[C@@H](C)NS(=O)(=O)c1cc(C)cc(C)c1 [Compound 433] | 93.8
CCn1c(Oc2ccc3cc[nH]c3c2)nnc1[C@@H](C)NS(=O)(=O)c1ccc(OC(F)F)cc1 [Compound 434] | 79.5
CCn1c(Oc2ccc3cc[nH]c3c2)nnc1[C@@H](C)NS(=O)(=O)c1cccc(OC(F)F)c1 [Compound 435] | 94.6
CCn1c(Oc2ccc3cc[nH]c3c2)nnc1[C@@H](C)NS(=O)(=O)c1c(F)cc(F)cc1Br [Compound 436] | 67.5
CCn1c(Oc2ccc3cc[nH]c3c2)nnc1[C@@H](C)NS(=O)(=O)c1cc(F)cc(F)c1 [Compound 437] | 97.3
CCn1c(Oc2ccc3cc[nH]c3c2)nnc1[C@@H](C)NS(=O)(=O)c1ccc(Cl)cc1F [Compound 438] | 71.6
CCn1c(Oc2ccc3cc[nH]c3c2)nnc1[C@@H](C)NS(=O)(=O)c1cc(F)c(F)c(F)c1 [Compound 439] | 98.1
CCn1c(Oc2ccc3cc[nH]c3c2)nnc1[C@@H](C)NS(=O)(=O)c1ccc(Br)c(C)c1 [Compound 440] | 88.4
CCn1c(Oc2ccc3cc[nH]c3c2)nnc1[C@@H](C)NS(=O)(=O)c1ccc(F)cc1Br [Compound 441] | 63
CCn1c(Oc2ccc3cc[nH]c3c2)nnc1[C@@H](C)NS(=O)(=O)c1ccc(C(F)(F)F)cc1Br [Compound 442] | 70.1
CCn1c(Oc2ccc3cc[nH]c3c2)nnc1[C@@H](C)NS(=O)(=O)c1cc(C(F)(F)F)ccc1Br [Compound 443] | 55.7

SMILES | inhibition at 10 µM [%]
CCn1c(Oc2ccc3cc[nH]c3c2)nnc1[C@@H](C)NS(=O)(=O)c1ccc(C)c(F)c1 [Compound 444] | 100
CCn1c(Oc2ccc3cc[nH]c3c2)nnc1[C@@H](C)NS(=O)(=O)c1ccc(F)cc1C [Compound 445] | 55.6
CCn1c(Oc2ccc3cc[nH]c3c2)nnc1[C@@H](C)NS(=O)(=O)c1cc(Cl)ccc1F [Compound 446] | 75.8
CCn1c(Oc2ccc3cc[nH]c3c2)nnc1[C@@H](C)NS(=O)(=O)c1ccc(Br)c(F)c1 [Compound 447] | 95.5
CCn1c(Oc2ccc3cc[nH]c3c2)nnc1[C@@H](C)NS(=O)(=O)c1ccc(Br)cc1Cl [Compound 448] | 81.1
CCn1c(Oc2ccc3cc[nH]c3c2)nnc1[C@@H](C)NS(=O)(=O)c1cc(C)ccc1F [Compound 451] | 76.8
CCn1c(Oc2ccc3cc[nH]c3c2)nnc1[C@@H](C)NS(=O)(=O)c1cccc(Cl)c1F [Compound 452] | 68.9
CCn1c(Oc2ccc3cc[nH]c3c2)nnc1[C@@H](C)NS(=O)(=O)CC1CCCCC1 [Compound 458] | 83.8
CCn1c(Oc2ccc3cc[nH]c3c2)nnc1[C@@H](C)NS(=O)(=O)c1cc(C)oc1C(F)(F)F [Compound 460] | 53.2
CCn1c(Oc2ccc3cc[nH]c3c2)nnc1[C@@H](C)NS(=O)(=O)c1ccc2c(c1)OCCO2 [Compound 461] | 99.7
CCn1c(Oc2ccc3cc[nH]c3c2)nnc1[C@@H](C)NS(=O)(=O)c1ccc2nsnc2c1 [Compound 464] | 87.9
CCn1c(Oc2ccc3cc[nH]c3c2)nnc1[C@@H](C)NS(=O)(=O)c1ccsc1 [Compound 466] | 51.1
CCn1c(Oc2ccc3cc[nH]c3c2)nnc1[C@@H](C)NS(=O)(=O)c1ccc(-c2cnco2)s1 [Compound 467] | 59.9
CCn1c(Oc2ccc3cc[nH]c3c2)nnc1[C@@H](C)NS(=O)(=O)c1cnn(-c2ccccc2)c1C [Compound 468] | 56.2
CCn1c(Oc2ccc3cc[nH]c3c2)nnc1[C@@H](C)NS(=O)(=O)c1cc(C)sc1C [Compound 472] | 55.3
CCn1c(Oc2ccc3cc[nH]c3c2)nnc1[C@@H](C)NS(=O)(=O)c1ccc(OC)cc1OC [Compound 473] | 74.5
CCn1c(Oc2ccc3cc[nH]c3c2)nnc1[C@@H](C)NS(=O)(=O)c1ccc(C(F)(F)F)cc1Cl [Compound 475] | 51.8
CCn1c(Oc2ccc3cc[nH]c3c2)nnc1[C@@H](C)NS(=O)(=O)c1cccc(C(C)=O)c1 [Compound 477] | 58.1
CCn1c(Oc2ccc3cc[nH]c3c2)nnc1[C@@H](C)CS(=O)(=O)c1ccc(F)c2ccccc12 [Compound 478] | 87
CCc1ccc(OC)c(S(=O)(=O)N[C@H](C)c2nnc(Oc3ccc4cc[nH]c4c3)n2CC)c1 [Compound 482] | 87.4
CCn1c(Oc2ccc3cc[nH]c3c2)nnc1[C@@H](C)NS(=O)(=O)c1ccc(Cl)c(S(N)(=O)=O)c1 [Compound 484] | 65.3
CCn1c(Oc2ccc3cc[nH]c3c2)nnc1[C@@H](C)NS(=O)(=O)c1ccc(Br)c(C(F)(F)F)c1 [Compound 488] | 62.5
CCn1c(Oc2ccc3cc[nH]c3c2)nnc1[C@@H](C)NS(=O)(=O)c1cc2ccccc2s1 [Compound 493] | 83.1

SMILES | inhibition at 10 µM [%]
CCn1c(Oc2ccc3cc[nH]c3c2)nnc1[C@@H](C)NS(=O)(=O)c1csc2ccccc12 [Compound 494] | 66
CCn1c(Oc2cccc(N3CCN(C)CC3)c2)nnc1[C@@H](C)NS(=O)(=O)c1ccc(C(C)=O)cc1 [Compound 497] | 104
CCn1c(Oc2cccc(N3CCN(C)CC3)c2)nnc1[C@@H](C)NS(=O)(=O)c1ccccc1 [Compound 498] | 84
CCn1c(Oc2cccc(N3CCN(C)CC3)c2)nnc1[C@@H](C)NS(=O)(=O)c1ccc(Br)cc1 [Compound 499] | 109
CCn1c(Oc2cccc(N3CCN(C)CC3)c2)nnc1[C@@H](C)NS(=O)(=O)c1ccc(C(C)(C)C)cc1 [Compound 500] | 90.2
CCn1c(Oc2cccc(N3CCN(C)CC3)c2)nnc1[C@@H](C)NS(=O)(=O)c1ccccc1Br [Compound 501] | 61.7
CCCCOc1ccc(S(=O)(=O)N[C@H](C)c2nnc(Oc3cccc(N4CCN(C)CC4)c3)n2CC)cc1 [Compound 502] | 75.5
CCn1c(Oc2cccc(N3CCN(C)CC3)c2)nnc1[C@@H](C)NS(=O)(=O)c1cccc(Br)c1 [Compound 503] | 116
CCn1c(Oc2cccc(N3CCN(C)CC3)c2)nnc1[C@@H](C)NS(=O)(=O)c1ccc(Br)cc1OC(F)(F)F [Compound 504] | 53.5
CCn1c(Oc2cccc(N3CCN(C)CC3)c2)nnc1[C@@H](C)NS(=O)(=O)c1ccc(Cl)cc1 [Compound 505] | 108
CCn1c(Oc2cccc(N3CCN(C)CC3)c2)nnc1[C@@H](C)NS(=O)(=O)c1ccccc1C#N [Compound 506] | 83.2
CCn1c(Oc2cccc(N3CCN(C)CC3)c2)nnc1[C@@H](C)NS(=O)(=O)c1ccc(Cl)c2nonc12 [Compound 507] | 84.8
CCn1c(Oc2cccc(N3CCN(C)CC3)c2)nnc1[C@@H](C)NS(=O)(=O)c1sc2ccc(Cl)cc2c1C [Compound 509] | 87
CCn1c(Oc2cccc(N3CCN(C)CC3)c2)nnc1[C@@H](C)NS(=O)(=O)c1cc(C)c(Cl)cc1C [Compound 510] | 114
CCn1c(Oc2cccc(N3CCN(C)CC3)c2)nnc1[C@@H](C)NS(=O)(=O)c1cc(Cl)ccc1Cl [Compound 511] | 98.6
CCn1c(Oc2cccc(N3CCN(C)CC3)c2)nnc1[C@@H](C)NS(=O)(=O)c1c(Cl)cccc1Cl [Compound 512] | 60.7
CCn1c(Oc2cccc(N3CCN(C)CC3)c2)nnc1[C@@H](C)NS(=O)(=O)c1ccc(OC)c(OC)c1 [Compound 513] | 96.6
CCc1ccc(S(=O)(=O)N[C@H](C)c2nnc(Oc3cccc(N4CCN(C)CC4)c3)n2CC)cc1 [Compound 515] | 109
CCn1c(Oc2cccc(N3CCN(C)CC3)c2)nnc1[C@@H](C)NS(=O)(=O)c1ccc(F)cc1 [Compound 516] | 107
CCn1c(Oc2cccc(N3CCN(C)CC3)c2)nnc1[C@@H](C)NS(=O)(=O)c1c(C)cc(C)cc1C [Compound 517] | 69.6
CCn1c(Oc2cccc(N3CCN(C)CC3)c2)nnc1[C@@H](C)NS(=O)(=O)c1ccc(OC)cc1 [Compound 518] | 111
